Laboratory results as given in patent publication US20200024278A1, “COMPOSITION COMPRISING ANTIBIOTIC COMPOUND AND AN HETEROCYCLIC COMPOUND AND THEIR USE IN PREVENTING OR TREATING BACTERIAL INFECTIONS” (MUTABILIS, priority 2016, published 2020).

How the values were obtained:
Test in all cases: MIC, broth microdilution (CLSI), substance alone or ATB combined with compound at 4 or 8 μg/mL
[1] = test system: ECO 190317; type: cell-based, E. coli; conditions: ECO 190317; for MIC ATB combined with Example: Example @4 μg/ml
How it was run: (§1)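 Antibiotic MICs were determined in presence of fixed compound at 4 or 8 μg/mL, and compound MICs alone, by visual growth inhibition. Inoculum 5·10^5 CFU/mL in ca-MHB, incubated 35 °C for 16-20 h per CLSI-M7-A7. Glucose-6-phosphate (25 μg/ml) added when fosfomycin was tested.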

[2] = test system: ECO UFR39; type: cell-based, E. coli; conditions: ECO UFR39; for MIC ATB combined with Example: Example @4 μg/ml; for MIC ATB combined with Example compound: compound @4 μg/ml
How it was run: as §1

[3] = test system: KPN 6299; type: cell-based, K. pneumoniae; conditions: for MIC ATB combined with Example: Example @4 μg/ml
How it was run: as §1

[4] = test system: KPN BAA-1898; type: cell-based, K. pneumoniae; conditions: KPN BAA-1898; for MIC ATB combined with Example: Example @4 μg/ml
How it was run: as §1

[5] = test system: KPN UFR42; type: cell-based, K. pneumoniae; conditions: KPN UFR42; for MIC ATB combined with Example: Example @4 μg/ml; for MIC ATB combined with Example compound: compound @4 μg/ml
How it was run: as §1

[6] = test system: ECL P99; type: cell-based, E. cloacae; conditions: ECL P99; for MIC ATB combined with Example: Example @4 μg/ml
How it was run: as §1

[7] = test system: PAE 105250; type: cell-based, P. aeruginosa; conditions: PAE 105250; for MIC ATB combined with Example: Example @4 μg/ml; for MIC ATB combined with Example compound: compound @4 μg/ml
How it was run: as §1

[8] = test system: PAE UFR48; type: cell-based, P. aeruginosa; conditions: PAE UFR48; for MIC ATB combined with Example: Example @4 μg/ml; for MIC ATB combined with Example compound: compound @4 μg/ml
How it was run: as §1

[9] = test system: PAE UFR90; type: cell-based, P. aeruginosa; conditions: PAE UFR90; for MIC ATB combined with Example: Example @4 μg/ml; for MIC ATB combined with Example compound: compound @4 μg/ml
How it was run: as §1

[10] = test system: SAU 29213; type: cell-based, S. aureus; conditions: for MIC ATB combined with Example / MIC ATB combined with Example compound: SAU 29213; for MIC ATB combined with Example: Example @4 μg/ml; for MIC ATB combined with Example compound: compound @4 μg/ml
How it was run: as §1

[11] = test system: SPN 49619; type: cell-based, S. pneumoniae; conditions: SPN 49619; for MIC ATB combined with Example: Example @4 μg/ml; for MIC ATB combined with Example compound: compound @4 μg/ml
How it was run: as §1

[12] = test system: ABA UFR151; type: cell-based, A. baumannii; conditions: Acinetobacter baumannii, substance alone, read-out: MIC
How it was run: as §1

[13] = test system: ABA UFR160; type: cell-based, A. baumannii; conditions: Acinetobacter baumannii, substance alone, read-out: MIC
How it was run: as §1

[14] = Escherichia coli, substance alone, read-out: MIC
[15] = Pseudomonas aeruginosa, substance alone, read-out: MIC

O=C1N2CC(n3cccn3)=C[C@H](C2)N1OS(=O)(=O)[O-].[Na+] [Example 15, sodium [(5R)-7-oxo-3-pyrazol-1-yl-1,6-diazabicyclo[3.2.1]oct-3-en-6-yl] sulfate]
<0.031 µg/mL: MIC ATB combined with Example ([1]; ATB ATM) | MIC ATB combined with Example ([1]; ATB FEP) | MIC ATB combined with Example ([1]; ATB MEM) | MIC ATB combined with Example ([1]; ATB PIP) | MIC ATB combined with Example compound ([1]; MIC of CIP, compound @4 μg/ml) | MIC ATB combined with Example ([2]; ATB ATM) | MIC ATB combined with Example ([2]; ATB FEP) | MIC ATB combined with Example ([2]; ATB MEM) | MIC ATB combined with Example ([2]; ATB PIP) | MIC ATB combined with Example ([3]; ATB ATM) | MIC ATB combined with Example ([3]; ATB MEM) | MIC ATB combined with Example ([3]; ATB PIP) | MIC ATB combined with Example ([4]; ATB ATM) | MIC ATB combined with Example ([4]; ATB FEP) | MIC ATB combined with Example ([4]; ATB MEM) | MIC ATB combined with Example ([4]; ATB PIP) | MIC ATB combined with Example ([5]; ATB ATM) | MIC ATB combined with Example ([5]; ATB FEP) | MIC ATB combined with Example ([5]; ATB MEM) | MIC ATB combined with Example ([5]; ATB PIP) | MIC ATB combined with Example ([6]; ATB ATM) | MIC ATB combined with Example ([6]; ATB FEP) | MIC ATB combined with Example ([6]; ATB MEM) | MIC ATB combined with Example ([6]; ATB PIP)
0.125 µg/mL: MIC ATB combined with Example compound ([7]; MIC of CIP) | MIC ATB combined with Example compound ([11]; MIC of DAP) | MIC ATB combined with Example compound ([11]; MIC of VAN)
32 µg/mL: MIC ATB combined with Example ([7]; ATB PIP) | MIC ATB combined with Example ([8]; ATB FEP) | MIC ATB combined with Example ([8]; ATB FOS) | MIC ATB combined with Example ([8]; ATB PIP)
<=0.031 μg/mL: MIC ATB combined with Example compound ([2]; MIC of CIP) | MIC ATB combined with Example compound ([2]; MIC of CPO) | MIC ATB combined with Example compound ([4]; MIC of CIP, compound @4 μg/ml) | MIC ATB combined with Example compound ([5]; MIC of CPO) | MIC ATB combined with Example compound ([6]; MIC of CIP, compound @4 μg/ml) | MIC ATB combined with Example ([10]; ATB MEM) | MIC ATB combined with Example compound ([10]; MIC of CIP) | MIC ATB combined with Example ([11]; ATB MEM) | MIC ATB combined with Example compound ([11]; MIC of CPO)
16 µg/mL: MIC ATB combined with Example compound ([7]; MIC of CPO) | MIC ATB combined with Example ([9]; ATB PIP) | MIC ATB combined with Example ([11]; ATB FOS)
<0.0010 µg/mL: MIC ATB combined with Example compound ([10]; MIC of CLI)
0.0078 µg/mL: MIC ATB combined with Example compound ([11]; MIC of RIF)
<0.0020 µg/mL: MIC ATB combined with Example compound ([10]; MIC of ERY)
0.031 µg/mL: MIC ATB combined with Example compound ([11]; MIC of CLI)
<=0.25 μg/mL: MIC ATB combined with Example ([3]; ATB FEP)
>32 µg/mL: MIC ATB combined with Example compound ([5]; MIC of CIP) | MIC ATB combined with Example compound ([8]; MIC of CPO) | MIC ATB combined with Example ([10]; ATB ATM) | MIC ATB combined with Example ([11]; ATB ATM)
0.25 µg/mL: MIC ATB combined with Example ([4]; ATB FOS) | MIC ATB combined with Example ([10]; ATB FOS) | MIC ATB combined with Example compound ([11]; MIC of CIP) | MIC ATB combined with Example compound ([11]; MIC of LZD)
0.016 µg/mL: MIC ATB combined with Example compound ([10]; MIC of LZD)
<=0.0020 μg/mL: MIC ATB combined with Example compound ([10]; MIC of DAP)
>128 µg/mL: MIC ATB combined with Example ([7]; ATB FOS)
<=0.125 μg/mL: MIC ATB combined with Example ([2]; ATB FOS) | MIC ATB combined with Example ([3]; ATB FOS) | MIC ATB combined with Example ([5]; ATB FOS) | MIC ATB combined with Example ([6]; ATB FOS)
8 µg/mL: MIC ATB combined with Example ([7]; ATB ATM) | MIC ATB combined with Example ([7]; ATB FEP) | MIC ATB combined with Example ([8]; ATB ATM) | MIC ATB combined with Example ([9]; ATB FOS) | MIC ([11]; Streptococcus pneumoniae, substance alone, read-out: MIC)
2 µg/mL: MIC [2, 14] | MIC ([6]; Enterobacter cloacae, substance alone, read-out: MIC) | MIC ATB combined with Example ([7]; ATB MEM) | MIC ATB combined with Example ([9]; ATB FEP)
0.0039 µg/mL: MIC ATB combined with Example compound ([10]; MIC of RIF)
<0.125 µg/mL: MIC ATB combined with Example ([1]; ATB FOS)
1 µg/mL: MIC [1, 14] | MIC ATB combined with Example ([9]; ATB MEM) | MIC ATB combined with Example compound ([9]; MIC of CIP)
4 µg/mL: MIC ([4]; Klebsiella pneumoniae, BAA1898, substance alone, read-out: MIC) | MIC ([5]; Klebsiella pneumoniae, substance alone, read-out: MIC) | MIC ATB combined with Example compound ([8]; MIC of CIP) | MIC ATB combined with Example ([9]; ATB ATM) | MIC ATB combined with Example compound ([9]; MIC of CPO) | MIC ([10]; Staphylococcus aureus, substance alone, SAU 29213 (MSSA 29213), read-out: MIC)
0.5 µg/mL: MIC ATB combined with Example ([8]; ATB MEM) | MIC ATB combined with Example ([10]; ATB FEP) | MIC ATB combined with Example ([10]; ATB PIP) | MIC ATB combined with Example compound ([10]; MIC of VAN) | MIC ATB combined with Example ([11]; ATB PIP) | MIC ATB combined with Example compound ([11]; MIC of SYN)
0.063 µg/mL: MIC ATB combined with Example compound ([3]; MIC of CIP, compound @4 μg/ml) | MIC ATB combined with Example compound ([10]; MIC of CPO) | MIC ATB combined with Example compound ([10]; MIC of SYN) | MIC ATB combined with Example ([11]; ATB FEP) | MIC ATB combined with Example compound ([11]; MIC of ERY)
> 32 µg/mL: MIC [7, 15] | MIC [8, 15] | MIC [9, 15] | MIC [12] | MIC [13]
